The subject of test [1] is phosphorylation of ERK, KRAS G12V in SW620. As to the kind of experiment: pERK inhibition assay, KRAS G12V. The format is cell-based. To be noted: Homo sapiens, SW-620; SW620 cells, 4 hours of incubation. On the procedure: (§1) This assay is to measure the ability of test compounds in inhibiting the phosphorylation of ERK, the downstream signaling of KRAS G12C in NCI-H358 cells, KRAS G12D in AGS cells, and KRAS G12V in SW620. NCI-H358 (ATCC-CRL5807) cells, AGS (ATCC-CRL-1739) cells, SW620 (ATCC-CCL-227) cells were all grown and maintained using RPMI-1640 medium (Thermo Fisher Scientific) with 10% fetal bovine serum and 1% penicillin/streptomycin. On the day prior to compound addition, cells were plated in tissue culture-treated 96 well plates (Corning-3699) at a density of 30,000 cell/well, 20,000 cell/well, 30,000 cell/well for NCI-H358, AGS and SW620 respectively, and allowed for attachment overnight. Diluted compounds were then added in a final concentration of 0.5% DMSO. After 4 hours of incubation, the medium was removed, 100 μL of 4% formaldehyde was added, and the assay plates were incubated at room temperature for 20 minutes. The plates were then washed once with phosphate buffered saline (PBS), and permeabilized with 100 μL of chilled methanol for 10 minutes. Non-specific antibody binding to the plates was blocked using 50 μL 1×BSA blocking buffer (Thermo-37520, 10-fold dilution by Phosphate-Buffered Saline Tween (PBST) for at least 1 hour at room temperature.
(§2) The amount of phosphor-ERK was determined using an antibody specific for phosphorylated form of ERK. Primary antibody (pERK, CST-4370, Cell Signaling Technology) was diluted 1:300 in blocking buffer, with 50 μL aliquoted to each well, and incubated overnight at 4° C. Cells was washed five times for 5 minutes with PBST. Secondary antibody (HRP-linked anti-rabbit IgG, CST-7074, Cell Signaling Technology) was diluted 1:1000 in blocking buffer, and 50 μL was added to each well and incubated 1-2 hrs at room temperature. Cells was washed 5 times for 5 minutes with PBST, 100 μL TMB ELISA substrate (abcam-ab171523) were added and gently shake for 20 minutes. 50 μL stop solution (abcam-ab171529) were added, and then read the signal (OD450) by EnVision.
(§3) IC50 was determined by fitting a 4-parameter sigmoidal concentration response model.

The test system of test [2] is NCI-H358 cells. As to the kind of experiment: Cell viability assay (Cell Counting Kit-8), KRAS G12C. In kind it is cell-based. To be noted: Homo sapiens, 72 hrs incubation, CCK-8. On the procedure: (§4) The purpose of this cellular assay was to determine the effects of test compounds on the proliferation of human cancer cell lines NCI-H358 (ATCC-CRL5807) cells, AGS (ATCC-CRL-1739) cells, SW620 (ATCC-CCL-227) over a 3-day treatment period by quantifying the amount of NADPH present at endpoint using Cell Counting Kit-8.
(§5) Cells were seeded at 5,000 cells/well (NCI-H358), 2,000 cells/well (AGS) 2,000 cells/well (SW620) in 96-well assay plates (Corning-3699) and incubated overnight. On the day of the assay, diluted compounds were then added in a final concentration of 0.5% DMSO. After 72 hrs incubation, a tenth of the volume of cell counting kit 8 (Dnjindo-CK04) was added into each well. Read the signal (OD450 minus OD650) using EnVision after 2 hrs incubation. IC50 was determined by fitting a 4-parameter sigmoidal concentration response model.

For test [3], the system named is phosphorylation of ERK, KRAS G12D in AGS cells. As to the kind of experiment: pERK inhibition assay, KRAS G12D. In kind it is cell-based. The note with it: Homo sapiens, 4 hours of incubation. On the procedure:
as §1, §2, §3

Test [4] relates to phosphorylation of ERK, KRAS G12C in NCI-H358 cells. As to the kind of experiment: pERK inhibition assay, KRAS G12C. The format is cell-based. To be noted: Homo sapiens, 4 hours of incubation. As to the method:
as §1, §2, §3

The test system of test [5] is AGS cells. As to the kind of experiment: Cell viability assay (Cell Counting Kit-8), KRAS G12D. The format is cell-based. To be noted: Homo sapiens, 72 hrs incubation, CCK-8. On the procedure:
as §4, §5
Background: Tetrazolium assays rely on reduction of a dye to a coloured formazan, in cell work by metabolically active cells.

The target of test [6] is KRAS G12D binding to BRAF (Homo sapiens (Human), UniProt P01116+P62937, G12D). As to the kind of experiment: KRAS-BRAF with CYPA (500 nM) interaction assay (TR-FRET), G12D. To be noted: GMPPNP loaded 6His-KRAS, GST-BRAF RBD, 3 hours. On the procedure:
(§6) KRAS-BRAF with CYPA (500 nM) Interaction Assay
(§7) In this example, TR-FRET was also used to measure the compound or compound-CYPA dependent disruption of the KRAS G12C-BRAF complex. This protocol was also used to measure disruption of KRAS G12D or KRAS G12V binding to BRAF by a compound of the invention, respectively. In assay buffer containing 25 mM HEPES PH=7.4 (4-(2-hydroxyethyl)-1-piperazineethanesulfonic acid, Thermo, 15630080), 0.002% Tween20, 0.1% BSA, 100 mM NaCl, 5 mM MgCl2, 10 μM GMPPNP (Guanosine 5′-[β,γ-imido]triphosphate trisodium salt hydrate, Sigma, G0635), tagless CYPA, GMPPNP loaded 6His-KRAS proteins, and GST-BRAF^RBD were mixed in a well of a 384-well assay plate at final concentrations of 50 nM, 6.25 nM and 1 nM, respectively. Compound was present in plate wells as a 16-point 3-fold dilution series starting at a final concentration of 10 μM and incubated for 3 hours. A mixture of MAb Anti-6His-XL665 (Cisbio, 61HISXLB) and Mab anti-GST-TB cryptate (Cisbio, 61GSTTLB) was then added at a final concentration of 6.67 nM and 0.21 nM, respectively, and the plate was incubated for an additional 1.5 hours. TR-FRET signal was read on a PHERstar FSX microplate reader (Ex320 nm, Em 665/615 nm). Compounds that facilitate disruption of the KRAS-BRAF complex were identified as those eliciting a decrease in the TR-FRET ratio relative to DMSO control wells.
A general note: In TR-FRET formats the signal depends on donor and acceptor labels being close together.

In test [7] the test system is SW620 cells. As to the kind of experiment: Cell viability assay (Cell Counting Kit-8), KRAS G12V. The note with it: Homo sapiens, SW-620, 72 hrs incubation, CCK-8. The format is cell-based. On the procedure: as §4, §5
The target of test [8] is KRAS G12V binding to BRAF (Homo sapiens (Human), UniProt P01116+P62937, G12V). As to the kind of experiment: KRAS-BRAF with CYPA (500 nM) interaction assay (TR-FRET), G12V. The note with it: GMPPNP loaded 6His-KRAS, GST-BRAF RBD, 3 hours. On the procedure: as §6, §7
Chain of KRAS G12V binding to BRAF (P01116-2 other isoform, or with tags, fused parts or gaps G12V): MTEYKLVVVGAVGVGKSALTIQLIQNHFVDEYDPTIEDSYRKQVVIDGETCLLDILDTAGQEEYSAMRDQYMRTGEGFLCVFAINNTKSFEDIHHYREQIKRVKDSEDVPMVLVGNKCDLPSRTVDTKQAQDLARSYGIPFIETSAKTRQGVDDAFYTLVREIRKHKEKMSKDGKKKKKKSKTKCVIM
Chain of KRAS G12V binding to BRAF (P62937 whole entry): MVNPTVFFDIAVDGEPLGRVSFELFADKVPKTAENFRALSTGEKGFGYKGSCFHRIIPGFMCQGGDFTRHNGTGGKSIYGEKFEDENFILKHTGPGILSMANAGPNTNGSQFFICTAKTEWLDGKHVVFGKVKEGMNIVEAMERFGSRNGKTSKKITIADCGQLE
Test [9] has as its target KRAS G12C-BRAF complex (Homo sapiens (Human), UniProt P01116+P62937, G12C). As to the kind of experiment: KRAS-BRAF with CYPA (500 nM) interaction assay (TR-FRET), G12C. The format is binding. The note with it: GMPPNP loaded 6His-KRAS, GST-BRAF RBD, 3 hours. As to the method: as §6, §7

Chain of KRAS G12D binding to BRAF (P01116-2 other isoform, or with tags, fused parts or gaps G12D): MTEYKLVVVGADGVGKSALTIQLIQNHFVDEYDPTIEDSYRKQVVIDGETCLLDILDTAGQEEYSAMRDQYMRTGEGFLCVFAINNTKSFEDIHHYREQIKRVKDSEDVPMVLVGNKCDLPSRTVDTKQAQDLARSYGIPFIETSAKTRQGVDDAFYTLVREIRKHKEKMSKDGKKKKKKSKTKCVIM
Chain of KRAS G12D binding to BRAF (P62937 whole entry): as the sequence (P62937 whole entry) above
Chain of KRAS G12C-BRAF complex (P01116-2 other isoform, or with tags, fused parts or gaps G12C): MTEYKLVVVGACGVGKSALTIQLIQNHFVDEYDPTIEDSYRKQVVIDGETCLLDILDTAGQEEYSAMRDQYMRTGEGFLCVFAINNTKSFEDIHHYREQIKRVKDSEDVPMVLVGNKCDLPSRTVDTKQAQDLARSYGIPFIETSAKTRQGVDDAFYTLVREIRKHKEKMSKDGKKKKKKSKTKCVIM
Chain of KRAS G12C-BRAF complex (P62937 whole entry): as the sequence (P62937 whole entry) above

For `CCn1c(-c2cc(N3CCOCC3)cnc2[C@H](C)OC)c2c3cc(c(F)cc31)-c1csc(n1)C[C@H](NC(=O)[C@H]1C[C@@H]1C)C(=O)N1CCC[C@H](N1)C(=O)OCC(C)(C)C2` (atropisomer, axis not shown; (M)) [Example 8, (1S,2S)—N-[(7S,13S)-21-ethyl-24-fluoro-(20M)-20-[2-[(1S)-1-methoxyethyl]-5-morpholino-3-pyridyl]-17,17-dimethyl-8,14-dioxo-15-oxa-4-thia-9,21,27,28-tetrazapentacyclo[17.5.2.1^2,5.1^9,13.0^22,26]octacosa-1(25),2,5(28),19,22(26),23-hexaen-7-yl]-2-methyl-cyclopropanecarboxamide], the half-inhibitory concentration (IC50) (commonly the concentration that gives 50% inhibition) in test [1] came to 0.008 µM; in [2], 0.016 µM; in test [3], 0.056 µM; in test [4] it was 0.023 µM; in test [5] it was 1.49 µM; in test [6], 1.67 µM. Moreover, the IC50 in [7] was found to be 0.013 µM; in test [8] it was 0.143 µM; in test [9], 0.16 µM.

`CO[C@@H](C)c1ncc(N2CCN(CC(F)(F)F)CC2)cc1-c1c2c3cc(c(F)cc3n1CC(F)(F)F)-c1csc(n1)C[C@H](NC(=O)[C@H]1C[C@@H]1C)C(=O)N1CCC[C@H](N1)C(=O)OCC(C)(C)C2` (atropisomer, axis not shown; (M)) [Example 9, (1S,2S)—N-[(7S,13S)-24-fluoro-(20M)-20-[2-[(1S)-1-methoxyethyl]-5-[4-(2,2,2-trifluoroethyl)piperazin-1-yl]-3-pyridyl]-17,17-dimethyl-8,14-dioxo-21-(2,2,2-trifluoroethyl)-15-oxa-4-thia-9,21,27,28-tetrazapentacyclo[17.5.2.1^2,5.1^9,13.0^22,26]octacosa-1(25),2,5(28),19,22(26),23-hexaen-7-yl]-2-methyl-cyclopropanecarboxamide]: the IC50 in [1] stood at 0.022 µM; in test [2], 0.224 µM; in test [3], 0.161 µM; in test [4] it was 0.047 µM; in [5], 0.704 µM; in test [6], 0.66 µM. The values for the IC50 in [7], in test [8] and in test [9] were 0.04 µM, 0.171 µM and 0.09 µM, respectively.

Take `CO[C@@H](C)c1ncc(N2CCN(C)CC2)cc1-c1c2c3c(F)c(ccc3n1CC(F)(F)F)-c1csc(n1)C[C@H](NC(=O)[C@H]1C[C@@H]1C)C(=O)N1CCC[C@H](N1)C(=O)OCC(C)(C)C2` (atropisomer, axis not shown; (M)) [Example 10, (1S,2S)—N-[(7S,13S)-25-fluoro-(20M)-20-[2-[(1S)-1-methoxyethyl]-5-(4-methylpiperazin-1-yl)-3-pyridyl]-17,17-dimethyl-8,14-dioxo-21-(2,2,2-trifluoroethyl)-15-oxa-4-thia-9,21,27,28-tetrazapentacyclo[17.5.2.1^2,5.1^9,13.0^22,26]octacosa-1(25),2,5(28),19,22(26),23-hexaen-7-yl]-2-methyl-cyclopropanecarboxamide]: the IC50 is 0.002 µM in test [1]; 0.012 µM in test [2]; 0.011 µM in test [3]; 0.017 µM in [4]; 0.013 µM in [5]; 0.02 µM in [6]. For the same compound, the figures for the IC50 in [7], in test [8] and in [9] were 0.003 µM, 0.013 µM and 0.009 µM, respectively.

`CO[C@@H](C)c1ncc(N2CCN(C)CC2)cc1C1=C2CC(C)(C)COC(=O)[C@@H]3CCCN(N3)C(=O)[C@@H](NC(=O)[C@H]3C[C@@H]3C)Cc3nc(cs3)-c3ccc(c2c3)C1` (single isomer, unassigned) [Example A122, reference compound]: the IC50 in test [1] was less than 0.001 µM; in test [2] it was less than 0.001 µM; in [3] it was 0.001 µM; in test [4] it was 0.002 µM; in [5], 0.001 µM; in test [6] it was 0.124 µM. In addition, the IC50 in test [7] is less than 0.001 µM; in [8], 0.025 µM; in [9] it was 0.013 µM.

These data come from patent publication US20250250284A1, “MACROCYCLE COMPOUNDS USEFUL AS KRAS INHIBITORS” (Hoffmann-La Roche Inc., priority 2022, published 2025).
